Measured values published in US8580809B2, “Filamin A-binding anti-inflammatory analgesic” (Pain Therapeutics, Inc., priority 2009, dated 2013).

Key:
mu opiate receptor (MOR) = target: T1, mu opiate receptor (MOR) (Rattus norvegicus, UniProt P33535); test: MOR agonist activity using [35S]GTPγS binding assay in striatal membranes; format: biochemical; settings: for MOR agonist activity, [35S]GTPγS binding to Gαo, FLNA-binding compound as agonist 0.1 μM: 0.1 μM compound; for MOR agonist activity, [35S]GTPγS binding to Gαo, FLNA-binding compound as agonist 0.1 μM / MOR agonist activity, [35S]GTPγS binding to Gαo, FLNA-binding compound as agonist 1 μM: striatal membranes; for MOR agonist activity, [35S]GTPγS binding to Gαo, 1 μM + BFNA: 1 μM compound + 1 μM β-funaltrexamine; for MOR agonist activity, [35S]GTPγS binding to Gαo, FLNA-binding compound as agonist 1 μM: 1 μM compound
T1 construct: from tissue; host or cells: rat striatal membrane preparation
Experimental: To assess the mu opiate receptor (MOR) agonist activity of positive compounds from the FLNA screening, compounds were tested in a [^35S]GTPγS binding assay using striatal membranes.
Striatal tissue was homogenized in 10 volumes of ice cold 25 mM HEPES buffer, pH 7.4, which contained 1 mM EGTA, 100 mM sucrose, 50 μg/ml leupeptin, 0.04 mM PMSF, 2 μg/ml soybean trypsin inhibitor and 0.2% 2-mercaptoethanol. The homogenates were centrifuged at 800×g for 5 minutes and the supernatants were centrifuged at 49,000×g for 20 minutes.
The resultant striatal membrane preparation (200 μg) was admixed and maintained (incubated) at 30° C. for 5 minutes in reaction buffer as above that additionally contained 1 mM MgCl2 and 0.5 nM [^35S]GTPγS (0.1 μCi/assay, PerkinElmer Life and Analytical Sciences) in a total volume of 250 μl and continued for 5 minutes in the absence or presence of 0.1-10 μM of an assayed compound of interest. The reaction was terminated by dilution with 750 μl of ice-cold reaction buffer that contained 20 mM MgCl2 and 1 mM EGTA and immediate centrifugation at 16,000×g for 5 minutes.
The resulting pellet was solubilized by sonicating for 10 seconds in 0.5 ml of immunoprecipitation buffer containing 0.5% digitonin, 0.2% sodium cholate and 0.5% NP-40. Normal rabbit serum (1 μl) was added to 1 ml of lysate and incubated at 25° C. for 30 minutes. Nonspecific immune complexes were removed by incubation with 25 μl of protein A/G-conjugated agarose beads at 25° C. for 30 minutes followed by centrifugation at 5,000×g at 4° C. for 5 minutes. The supernatant was divided and separately incubated at 25° C. for 30 minutes with antibodies raised against Gαo proteins (1:1,000 dilutions).
The immunocomplexes so formed were collected by incubation at 25° C. for 30 minutes with 40 μl of agarose-conjugated protein A/G beads and centrifugation at 5,000×g at 4° C. for 5 minutes. The pellet was washed and suspended in buffer containing 50 mM Tris-HCl, pH 8.0, and 1% NP-40. The radioactivity in the suspension was determined by liquid scintillation spectrometry. […] DAMGO (H-Tyr-D-Ala-Gly-N-MePhe-Gly-OH; 1 or 10 μM) was used as a positive control.

[1] = Mouse hot-water tail-flick test; format: in vivo; settings: for mean maximum antinociception amount: 56 mg/kg
Experimental: The mouse “tail flick” test was used to assay the relative antinociceptive activity of compositions containing a compound to be assayed. This assay was substantially that disclosed by Xie et al., 2005 J. Neurosci 25:409-416.
The mouse hot-water tail-flick test was performed by placing the distal third of the tail in a water bath maintained at 52° C. The latency until tail withdrawal from the bath was determined and compared among the treatments. A 10 second cutoff was used to avoid tissue damage. Data are converted to percentage of antinociception by the following formula: (response latency−baseline latency)/(cutoff−baseline latency)×100 to generate dose-response curves. […] Relative potency was determined as a ratio of the A50 values.
To assess tolerance to the antinociceptive effect, the compound was administered twice daily for 7 days at an A90 dose (dose that results in a 90% antinociceptive effect in the 52° C. warm-water tail-flick test), and the tail-flick test was performed daily after the a.m. dose.

MOR = MOR (Rattus norvegicus, UniProt P33535); test: Relative Gs/Go switching: MOR-G protein coupling in organotypic striatal slice cultures; settings: for Go (MOR level in anti-Gαo immunoprecipitates), average / Gs/Go-Coupled Ratio, average / Gs/olf (MOR level in anti-Gαs/olf immunoprecipitates), average: striatal slice culture
Experimental: The threshold for significance was p<0.05.
Striatal slices (200 μM thickness) were prepared using a McIlwain tissue chopper (Mickle Laboratory Engineering Co., Surrey, UK).

primary human astrocytes = test: LPS-induced cytokine release from primary human astrocytes; format: cell-based; settings: 2 hours prior to LPS and 24 hours
filamin A = filamin A (Homo sapiens, UniProt P21333); settings: read-out: affinity of binding to filamin A; cited from earlier work
Sequence of filamin A (P21333 whole entry): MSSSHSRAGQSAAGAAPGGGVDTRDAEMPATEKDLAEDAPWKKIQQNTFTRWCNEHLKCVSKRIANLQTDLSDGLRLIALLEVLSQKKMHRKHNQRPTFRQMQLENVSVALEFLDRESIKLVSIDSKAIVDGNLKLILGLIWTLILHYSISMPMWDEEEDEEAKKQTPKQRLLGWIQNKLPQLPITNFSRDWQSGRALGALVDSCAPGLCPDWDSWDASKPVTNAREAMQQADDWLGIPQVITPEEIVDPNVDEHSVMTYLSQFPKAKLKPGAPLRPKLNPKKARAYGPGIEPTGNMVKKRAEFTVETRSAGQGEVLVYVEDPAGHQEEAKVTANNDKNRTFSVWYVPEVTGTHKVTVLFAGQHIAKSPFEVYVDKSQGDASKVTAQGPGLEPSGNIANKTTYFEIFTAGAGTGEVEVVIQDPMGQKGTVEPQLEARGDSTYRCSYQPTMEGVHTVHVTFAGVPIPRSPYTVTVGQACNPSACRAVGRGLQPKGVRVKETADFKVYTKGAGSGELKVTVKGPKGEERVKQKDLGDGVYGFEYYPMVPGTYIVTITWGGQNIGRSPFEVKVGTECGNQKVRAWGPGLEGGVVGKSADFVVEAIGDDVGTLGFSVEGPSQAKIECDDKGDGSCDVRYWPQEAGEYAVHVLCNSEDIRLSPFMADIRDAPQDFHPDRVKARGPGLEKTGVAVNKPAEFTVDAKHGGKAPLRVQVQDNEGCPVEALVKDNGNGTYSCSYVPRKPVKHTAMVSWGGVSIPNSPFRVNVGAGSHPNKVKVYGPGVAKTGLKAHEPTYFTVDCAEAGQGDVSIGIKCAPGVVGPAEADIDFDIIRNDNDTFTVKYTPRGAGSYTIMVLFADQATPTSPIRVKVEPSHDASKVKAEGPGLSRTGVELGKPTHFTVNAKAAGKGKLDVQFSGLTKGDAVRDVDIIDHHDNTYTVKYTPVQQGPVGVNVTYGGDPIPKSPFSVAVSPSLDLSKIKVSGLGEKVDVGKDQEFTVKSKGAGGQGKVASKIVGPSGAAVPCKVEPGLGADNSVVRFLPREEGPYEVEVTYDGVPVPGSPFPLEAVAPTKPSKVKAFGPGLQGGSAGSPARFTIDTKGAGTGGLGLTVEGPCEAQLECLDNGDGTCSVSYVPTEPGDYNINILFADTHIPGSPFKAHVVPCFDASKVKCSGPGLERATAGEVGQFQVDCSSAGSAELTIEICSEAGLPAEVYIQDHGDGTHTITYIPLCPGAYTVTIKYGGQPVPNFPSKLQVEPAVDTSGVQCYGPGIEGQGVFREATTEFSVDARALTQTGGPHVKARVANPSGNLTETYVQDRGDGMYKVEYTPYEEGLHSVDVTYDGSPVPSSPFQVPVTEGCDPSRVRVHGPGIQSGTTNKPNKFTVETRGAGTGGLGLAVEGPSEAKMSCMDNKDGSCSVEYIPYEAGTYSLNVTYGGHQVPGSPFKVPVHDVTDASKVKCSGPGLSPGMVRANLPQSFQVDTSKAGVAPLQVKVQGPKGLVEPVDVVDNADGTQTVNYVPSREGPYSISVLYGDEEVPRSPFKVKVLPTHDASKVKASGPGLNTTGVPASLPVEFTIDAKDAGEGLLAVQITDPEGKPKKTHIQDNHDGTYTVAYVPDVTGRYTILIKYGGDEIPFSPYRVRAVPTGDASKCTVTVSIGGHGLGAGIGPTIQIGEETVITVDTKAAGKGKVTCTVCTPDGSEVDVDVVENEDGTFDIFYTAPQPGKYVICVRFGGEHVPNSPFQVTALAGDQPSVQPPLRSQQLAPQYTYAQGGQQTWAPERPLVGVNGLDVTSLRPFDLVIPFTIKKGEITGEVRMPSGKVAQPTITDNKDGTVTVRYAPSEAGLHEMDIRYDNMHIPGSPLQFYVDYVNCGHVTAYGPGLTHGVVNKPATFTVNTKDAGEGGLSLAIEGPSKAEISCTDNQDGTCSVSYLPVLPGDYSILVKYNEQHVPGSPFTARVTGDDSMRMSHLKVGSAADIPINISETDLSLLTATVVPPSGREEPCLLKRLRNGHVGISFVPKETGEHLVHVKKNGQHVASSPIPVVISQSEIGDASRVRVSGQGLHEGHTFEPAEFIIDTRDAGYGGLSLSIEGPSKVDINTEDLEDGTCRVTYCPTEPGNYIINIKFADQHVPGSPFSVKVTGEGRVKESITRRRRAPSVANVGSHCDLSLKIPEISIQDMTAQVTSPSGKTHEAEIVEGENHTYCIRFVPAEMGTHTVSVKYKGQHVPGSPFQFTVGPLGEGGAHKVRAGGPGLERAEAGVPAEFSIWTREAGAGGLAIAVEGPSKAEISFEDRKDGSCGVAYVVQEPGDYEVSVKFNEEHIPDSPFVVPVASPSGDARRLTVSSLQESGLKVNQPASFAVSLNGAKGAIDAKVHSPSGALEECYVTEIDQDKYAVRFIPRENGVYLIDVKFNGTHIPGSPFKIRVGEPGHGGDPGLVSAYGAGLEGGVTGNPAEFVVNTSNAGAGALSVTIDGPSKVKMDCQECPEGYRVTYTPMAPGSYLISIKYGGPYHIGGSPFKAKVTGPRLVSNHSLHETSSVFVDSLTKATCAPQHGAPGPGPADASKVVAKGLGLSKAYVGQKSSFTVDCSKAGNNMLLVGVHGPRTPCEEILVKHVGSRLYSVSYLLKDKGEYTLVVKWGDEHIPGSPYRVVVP

Sequence of MOR (P33535 whole entry): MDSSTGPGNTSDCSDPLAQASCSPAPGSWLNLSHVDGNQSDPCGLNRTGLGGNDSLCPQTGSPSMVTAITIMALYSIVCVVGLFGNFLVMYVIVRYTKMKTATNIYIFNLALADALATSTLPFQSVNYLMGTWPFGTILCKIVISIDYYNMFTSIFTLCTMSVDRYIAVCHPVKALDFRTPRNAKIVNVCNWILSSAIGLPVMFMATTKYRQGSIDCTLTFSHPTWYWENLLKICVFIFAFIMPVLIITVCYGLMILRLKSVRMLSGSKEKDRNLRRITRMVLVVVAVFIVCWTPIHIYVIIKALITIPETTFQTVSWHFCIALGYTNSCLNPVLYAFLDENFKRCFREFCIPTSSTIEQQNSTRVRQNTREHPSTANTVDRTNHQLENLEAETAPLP
T1 sequence (P33535 whole entry): as above

Question: For `CC(=O)c1ccc(C(=O)N2CCC3(CC2)OCCN3S(=O)(=O)c2ccc(C(C)=O)cc2)cc1` [Compound C0052], which “MOR agonist activity, [35S]GTPγS binding to Gαo, FLNA-binding compound as agonist 0.1 μM” value (from here on “MOR agonist activity … as agonist 0.1 μM”) (mu opiate receptor (MOR)) is on record?
Answer: 108.4%

Question: What about the “MOR agonist activity, [35S]GTPγS binding to Gαo, 1 μM + BFNA” value (“MOR agonist activity … 1 μM + BFNA” below) (mu opiate receptor (MOR)) of the same molecule?
Answer: 42.7%

Question: What about the “MOR agonist activity, [35S]GTPγS binding to Gαo, FLNA-binding compound as agonist 1 μM” value (shortened to “MOR agonist activity … as agonist 1 μM”) (mu opiate receptor (MOR)) of the same molecule?
Answer: 162.8%

Question: What about the “mean maximum antinociception amount” value ([1]; oral, at about 20 minutes) of the same molecule?
Answer: about 30%

Question: Which “MOR agonist activity … as agonist 0.1 μM” value (mu opiate receptor (MOR)) does the source give for `CC(=O)c1ccc(S(=O)(=O)N2CCC3(CC2)OCCN3S(=O)(=O)c2ccc(C(C)=O)cc2)cc1` [Compound C0011] here?
Answer: 217.0%

Question: What about the “MOR agonist activity … 1 μM + BFNA” value (mu opiate receptor (MOR)) of the same molecule?
Answer: 19.0%

Question: And the “MOR agonist activity … as agonist 1 μM” value (mu opiate receptor (MOR))?
Answer: 305.0%

Question: What about the “mean maximum antinociception amount” value ([1]; oral, at about 10-20 minutes) of the same molecule?
Answer: about 70%

Question: And the “Go (MOR level in anti-Gαo immunoprecipitates), average” value (MOR; 10 μM)?
Answer: 1603.3

Question: What about the “Gs/Go-Coupled Ratio, average” value (MOR; 10 μM) of the same molecule?
Answer: 0.332

Question: And the “Gs/olf (MOR level in anti-Gαs/olf immunoprecipitates), average” value (MOR; 10 μM)?
Answer: 534.3

Question: What about the “Go (MOR level in anti-Gαo immunoprecipitates), average” value (MOR; 100 μM) of the same molecule?
Answer: 1598.8

Question: What about the “Gs/Go-Coupled Ratio, average” value (MOR; 100 μM) of the same molecule?
Answer: 0.420

Question: What about the “Gs/olf (MOR level in anti-Gαs/olf immunoprecipitates), average” value (MOR; 100 μM) of the same molecule?
Answer: 658.2

Question: Which “A50 value (95% confidence interval)” value ([1]; orally administered, mouse, 52° C. tail flick) does the source give for `CN1CC[C@]23c4c5ccc(O)c4O[C@H]2[C@@H](O)C=C[C@H]3[C@H]1C5` [morphine, reference compound] here?
Answer: 61.8 (52.4−72.9) mg/kg

Question: What does the source list for `COc1ccc2c3c1O[C@H]1C(=O)CC[C@@]4(O)[C@@H](C2)N(C)CC[C@]314` [Oxycodone, oxycodone, reference compound]?
Answer: Go (MOR level in anti-Gαo immunoprecipitates), average (MOR; 10 μM): 900.4; switch of μ opioid receptor G protein coupling from Go to Gs (MOR; 7 days of twice daily 1-hour exposures, organotypic striatal slice cultures): switch from Go to Gs coupling

Question: What does the source list for `COc1ccc(S(=O)(=O)N2CCOC23CCN(S(=O)(=O)c2ccc(C(C)=O)cc2)CC3)cc1` [Compound C0047]?
Answer: MOR agonist activity, [35S]GTPγS binding to Gαo, FLNA-binding compound as agonist 0.1 μM (mu opiate receptor (MOR)): 142.2%; MOR agonist activity, [35S]GTPγS binding to Gαo, 1 μM + BFNA (mu opiate receptor (MOR)): 80.1%; MOR agonist activity, [35S]GTPγS binding to Gαo, FLNA-binding compound as agonist 1 μM (mu opiate receptor (MOR)): 206.1%; mean maximum antinociception amount ([1]; at about 20-30 minutes): about 35%

Question: What does the source list for `C=CCN1CC[C@]23c4c5ccc(O)c4O[C@H]2C(=O)CC[C@]3(O)[C@H]1C5` [(+)Naloxone, (+)naloxone, reference compound]?
Answer: IL-1β Average % (±SEM) (primary human astrocytes; 10 pM): 75.9 (4.5) %; IL-6 Average % (±SEM) (primary human astrocytes; 10 pM): 56.9 (4.4) %; TNF-α Average % (±SEM) (primary human astrocytes; 10 pM): 58.6 (2.0) %; IL-1β Average % (±SEM) (primary human astrocytes; 1 nM): 10.5 (4.8) %; IL-6 Average % (±SEM) (primary human astrocytes; 1 nM): 6.8 (4.3) %; TNF-α Average % (±SEM) (primary human astrocytes; 1 nM): 9.2 (6.0) %

Question: Which “MOR agonist activity … as agonist 0.1 μM” value (mu opiate receptor (MOR)) does the source give for `O=C1CN(Cc2ccccc2)C2(CCN(S(=O)(=O)c3cc(Cl)c(O)c(Cl)c3)CC2)N1` [Compound C0139M] here?
Answer: 156.1%

Question: And the “MOR agonist activity … 1 μM + BFNA” value (mu opiate receptor (MOR))?
Answer: 51.0%

Question: And the “MOR agonist activity … as agonist 1 μM” value (mu opiate receptor (MOR))?
Answer: 206.6%

Question: What about the “IL-1β Average % (±SEM)” value (primary human astrocytes; 10 pM) of the same molecule?
Answer: 83.4 (3.0) %

Question: What about the “IL-6 Average % (±SEM)” value (primary human astrocytes; 10 pM) of the same molecule?
Answer: 76.6 (3.1) %

Question: And the “TNF-α Average % (±SEM)” value (primary human astrocytes; 10 pM)?
Answer: 77.0 (3.2) %

Question: What about the “IL-1β Average % (±SEM)” value (primary human astrocytes; 1 nM) of the same molecule?
Answer: 78.2 (0.7) %

Question: What about the “IL-6 Average % (±SEM)” value (primary human astrocytes; 1 nM) of the same molecule?
Answer: 80.1 (7.0) %

Question: And the “TNF-α Average % (±SEM)” value (primary human astrocytes; 1 nM)?
Answer: 77.5 (1.8) %

Question: What about the “IL-1β Average % (±SEM)” value (primary human astrocytes; 100 nM) of the same molecule?
Answer: 70.5 (1.6) %

Question: And the “IL-6 Average % (±SEM)” value (primary human astrocytes; 100 nM)?
Answer: 80.2 (6.3) %

Question: And the “TNF-α Average % (±SEM)” value (primary human astrocytes; 100 nM)?
Answer: 72.7 (2.5) %

Question: And the “IL-1β Average % (±SEM)” value (primary human astrocytes; 100 fM)?
Answer: 84.5 (2.6) %

Question: And the “IL-6 Average % (±SEM)” value (primary human astrocytes; 100 fM)?
Answer: 82.6 (1.6) %

Question: And the “TNF-α Average % (±SEM)” value (primary human astrocytes; 100 fM)?
Answer: 74.8 (4.3) %

Question: Which Kd (filamin A) does the source give for `C=CCN1CC[C@]23c4c5ccc(O)c4O[C@H]2C(=O)CC[C@@]3(O)[C@H]1C5` [Naloxone, naloxone] here?
Answer: ~4 pM

Question: For `NS(=O)(=O)c1ccc(S(=O)(=O)N2CCC3(CC2)OCCN3S(=O)(=O)c2ccc(S(N)(=O)=O)cc2)cc1` [Compound C0034], which “MOR agonist activity … as agonist 0.1 μM” value (mu opiate receptor (MOR)) is on record?
Answer: 103.6%

Question: What about the “MOR agonist activity … 1 μM + BFNA” value (mu opiate receptor (MOR)) of the same molecule?
Answer: 80.1%

Question: What about the “MOR agonist activity … as agonist 1 μM” value (mu opiate receptor (MOR)) of the same molecule?
Answer: 167.9%
